According to patent US11911346B2, “Orally administrated therapeutic for treating mild cognitive impairment (MCI) and improving human cognitive function” (BrainCare LLC, priority 2021, dated 2024):

System: cognitive function of participants with Subjective Cognitive Decline
Experiment: Cognitive Failures Questionnaire (CFQ), 8-week randomized study of one or two BCP capsules daily
Format: in vivo, human
Details: for CFQ score: Do you bump into people? / CFQ score: Do you confuse left and right when giving people directions? / CFQ score: Do you daydream when you ought to be listening to something? / CFQ score: Do you fail to hear people speaking to you when you are doing something? / CFQ score: Do you fail to listen to people's names when you are meeting them for the first time? / CFQ score: Do you fail to notice signposts on the road? / CFQ score: Do you fail to see what you want in a supermarket (although it's there)? / CFQ score: Do you find that you drop things? / CFQ score: Do you find that you forget appointments? / CFQ score: Do you find you accidentally misplace things like placing the fruit in the cupboard and the bowl in the refrigerator? / CFQ score: Do you find you can't quite remember something although it's “on the tip of your tongue”? / CFQ score: Do you find you can't think of anything to say? / CFQ score: Do you find you forget people's names? / CFQ score: Do you find you forget what you came to the store to buy? / CFQ score: Do you find you forget whether you've turned off a light or locked the door? / CFQ score: Do you find you forget which way to turn on a road you know well but rarely use? / CFQ score: Do you find you forget why you went from one place of the house to the other? / CFQ score: Do you find yourself suddenly wondering if you used a word correctly? / CFQ score: Do you forget where you put something like a newspaper or a book? / CFQ score: Do you have trouble making up your mind? / CFQ score: Do you lose track of paying bills? / CFQ score: Do you lose your temper and regret it? / CFQ score: Do you read something and find you haven't been thinking about it and must read it again? / CFQ score: Do you say something and realize afterwards that it might be taken as an insult? / CFQ score: Do you start doing one thing at home and get distracted and do something else (unintentionally)? / Distractibility summed sub-score of CFQ / False triggering summed sub-score of CFQ / Forgetfulness summed sub-score of CFQ / Total CFQ summed sub-score: lower is better
[1] = one capsule daily (90 mg BCP), week 4
[2] = one capsule daily (90 mg BCP), week 8
[3] = two capsules daily (180 mg BCP), week 4

## C=C1CC/C=C(\C)CC[C@@H]2[C@@H]1CC2(C)C [BCP, beta-caryophyllene]
[1]
  CFQ % better vs. baseline: Do you bump into people?: 29% better
  CFQ % better vs. baseline: Do you daydream when you ought to be listening to something?: 16% better
  CFQ % better vs. baseline: Do you fail to hear people speaking to you when you are doing something?: 15% better
  CFQ % better vs. baseline: Do you fail to notice signposts on the road?: 17% better
  CFQ % better vs. baseline: Do you fail to see what you want in a supermarket (although it's there)?: 14% better
  CFQ % better vs. baseline: Do you find that you drop things?: 14% better
  CFQ % better vs. baseline: Do you find you accidentally misplace things like placing the fruit in the cupboard and the bowl in the refrigerator?: 17% better
  CFQ % better vs. baseline: Do you find you can't quite remember something although it's “on the tip of your tongue”?: 12% better
  CFQ % better vs. baseline: Do you find you can't think of anything to say?: 15% better
  CFQ % better vs. baseline: Do you find you forget people's names?: 12% better
  CFQ % better vs. baseline: Do you find you forget what you came to the store to buy?: 12% better
  CFQ % better vs. baseline: Do you find you forget whether you've turned off a light or locked the door?: 11% better
  CFQ % better vs. baseline: Do you find you forget which way to turn on a road you know well but rarely use?: 27% better
  CFQ % better vs. baseline: Do you find yourself suddenly wondering if you used a word correctly?: 14% better
  CFQ % better vs. baseline: Do you have trouble making up your mind?: 13% better
  CFQ % better vs. baseline: Do you lose track of paying bills?: 23% better
  CFQ % better vs. baseline: Do you read something and find you haven't been thinking about it and must read it again?: 11% better
  CFQ % better vs. baseline: Do you say something and realize afterwards that it might be taken as an insult?: 28% better
  CFQ % worse vs. baseline: Do you confuse left and right when giving people directions?: 17% worse
  CFQ % worse vs. baseline: Do you find that you forget appointments?: 25% worse
  CFQ change vs. baseline: Do you fail to listen to people's names when you are meeting them for the first time?: No change
  CFQ change vs. baseline: Do you lose your temper and regret it?: No change
  CFQ change vs. baseline: Do you start doing one thing at home and get distracted and do something else (unintentionally)?: no change
  CFQ score: Do you bump into people?: 0.5 ± 0.6
  CFQ score: Do you confuse left and right when giving people directions?: 0.7 ± 1.0
  CFQ score: Do you daydream when you ought to be listening to something?: 1.6 ± 0.8
  CFQ score: Do you fail to hear people speaking to you when you are doing something?: 1.7 ± 0.9
  CFQ score: Do you fail to listen to people's names when you are meeting them for the first time?: 2.2 ± 1.1
  CFQ score: Do you fail to notice signposts on the road?: 1.0 ± 0.7
  CFQ score: Do you fail to see what you want in a supermarket (although it's there)?: 1.2 ± 0.7
  CFQ score: Do you find that you drop things?: 1.2 ± 0.9
  CFQ score: Do you find that you forget appointments?: 1.0 ± 0.7
  CFQ score: Do you find you accidentally misplace things like placing the fruit in the cupboard and the bowl in the refrigerator?: 1.0 ± 0.8
  CFQ score: Do you find you can't quite remember something although it's “on the tip of your tongue”?: 2.3 ± 0.8
  CFQ score: Do you find you can't think of anything to say?: 1.1 ± 0.8
  CFQ score: Do you find you forget people's names?: 2.2 ± 1.0
  CFQ score: Do you find you forget what you came to the store to buy?: 1.5 ± 0.8
  CFQ score: Do you find you forget whether you've turned off a light or locked the door?: 1.6 ± 0.8
  CFQ score: Do you find you forget which way to turn on a road you know well but rarely use?: 0.8 ± 0.7
  CFQ score: Do you find you forget why you went from one place of the house to the other?: 1.7 ± 0.6
  CFQ score: Do you find yourself suddenly wondering if you used a word correctly?: 1.2 ± 0.8
  CFQ score: Do you forget where you put something like a newspaper or a book?: 1.8 ± 0.9
  CFQ score: Do you have trouble making up your mind?: 1.3 ± 0.7
  CFQ score: Do you lose track of paying bills?: 1.0 ± 0.8
  CFQ score: Do you lose your temper and regret it?: 1.1 ± 0.7
  CFQ score: Do you read something and find you haven't been thinking about it and must read it again?: 1.7 ± 0.9
  CFQ score: Do you say something and realize afterwards that it might be taken as an insult?: 1.1 ± 1.0
  CFQ score: Do you start doing one thing at home and get distracted and do something else (unintentionally)?: 2.3 ± 0.8
  Distractibility summed sub-score of CFQ: 11 ± 4
  False triggering summed sub-score of CFQ: 9 ± 4
  Forgetfulness summed sub-score of CFQ: 14 ± 5
  Total CFQ summed sub-score: 34 ± 10
[2]
  CFQ % better vs. baseline: Do you daydream when you ought to be listening to something?: 11% better
  CFQ % better vs. baseline: Do you fail to hear people speaking to you when you are doing something?: 20% better
  CFQ % better vs. baseline: Do you fail to listen to people's names when you are meeting them for the first time?: 14% better
  CFQ % better vs. baseline: Do you fail to notice signposts on the road?: 17% better
  CFQ % better vs. baseline: Do you fail to see what you want in a supermarket (although it's there)?: 7% better
  CFQ % better vs. baseline: Do you find that you drop things?: 14% better
  CFQ % better vs. baseline: Do you find you accidentally misplace things like placing the fruit in the cupboard and the bowl in the refrigerator?: 25% better
  CFQ % better vs. baseline: Do you find you forget people's names?: 12% better
  CFQ % better vs. baseline: Do you find you forget what you came to the store to buy?: 18% better
  CFQ % better vs. baseline: Do you find you forget whether you've turned off a light or locked the door?: 17% better
  CFQ % better vs. baseline: Do you find you forget which way to turn on a road you know well but rarely use?: 27% better
  CFQ % better vs. baseline: Do you find yourself suddenly wondering if you used a word correctly?: 14% better
  CFQ % better vs. baseline: Do you have trouble making up your mind?: 7% better
  CFQ % better vs. baseline: Do you lose track of paying bills?: 15% better
  CFQ % better vs. baseline: Do you lose your temper and regret it?: 9% better
  CFQ % better vs. baseline: Do you read something and find you haven't been thinking about it and must read it again?: 16% better
  CFQ % better vs. baseline: Do you say something and realize afterwards that it might be taken as an insult?: 20% better
  CFQ % better vs. baseline: Do you start doing one thing at home and get distracted and do something else (unintentionally)?: 4% better
  CFQ % worse vs. baseline: Do you confuse left and right when giving people directions?: 17% worse
  CFQ % worse vs. baseline: Do you find that you forget appointments?: 13% worse
  CFQ change vs. baseline: Do you bump into people?: No change
  CFQ change vs. baseline: Do you find you can't think of anything to say?: no change
  CFQ score: Do you bump into people?: 0.7 ± 0.6
  CFQ score: Do you confuse left and right when giving people directions?: 0.7 ± 0.9
  CFQ score: Do you daydream when you ought to be listening to something?: 1.7 ± 0.9
  CFQ score: Do you fail to hear people speaking to you when you are doing something?: 1.6 ± 0.9
  CFQ score: Do you fail to listen to people's names when you are meeting them for the first time?: 1.9 ± 1.2
  CFQ score: Do you fail to notice signposts on the road?: 1.0 ± 0.8
  CFQ score: Do you fail to see what you want in a supermarket (although it's there)?: 1.3 ± 0.9
  CFQ score: Do you find that you drop things?: 1.2 ± 0.7
  CFQ score: Do you find that you forget appointments?: 0.9 ± 0.8
  CFQ score: Do you find you accidentally misplace things like placing the fruit in the cupboard and the bowl in the refrigerator?: 0.9 ± 0.7
  CFQ score: Do you find you can't quite remember something although it's “on the tip of your tongue”?: 2.1 ± 0.7
  CFQ score: Do you find you can't think of anything to say?: 1.3 ± 0.8
  CFQ score: Do you find you forget people's names?: 2.2 ± 0.8
  CFQ score: Do you find you forget what you came to the store to buy?: 1.4 ± 0.8
  CFQ score: Do you find you forget whether you've turned off a light or locked the door?: 1.5 ± 0.7
  CFQ score: Do you find you forget which way to turn on a road you know well but rarely use?: 0.8 ± 0.7
  CFQ score: Do you find you forget why you went from one place of the house to the other?: 1.7 ± 0.6
  CFQ score: Do you find yourself suddenly wondering if you used a word correctly?: 1.2 ± 0.7
  CFQ score: Do you forget where you put something like a newspaper or a book?: 1.8 ± 0.7
  CFQ score: Do you have trouble making up your mind?: 1.4 ± 0.9
  CFQ score: Do you lose track of paying bills?: 1.1 ± 0.8
  CFQ score: Do you lose your temper and regret it?: 1.0 ± 0.6
  CFQ score: Do you read something and find you haven't been thinking about it and must read it again?: 1.6 ± 0.9
  CFQ score: Do you say something and realize afterwards that it might be taken as an insult?: 1.2 ± 0.7
  CFQ score: Do you start doing one thing at home and get distracted and do something else (unintentionally)?: 2.2 ± 0.6
  Distractibility summed sub-score of CFQ: 11 ± 3
  False triggering summed sub-score of CFQ: 9 ± 4
  Forgetfulness summed sub-score of CFQ: 13 ± 5
  Total CFQ summed sub-score: 33 ± 11
[3]
  CFQ % better vs. baseline: Do you bump into people?: 14% better
  CFQ % better vs. baseline: Do you confuse left and right when giving people directions?: 22% better
  CFQ % better vs. baseline: Do you daydream when you ought to be listening to something?: 28%
  CFQ % better vs. baseline: Do you fail to hear people speaking to you when you are doing something?: 12% better
  CFQ % better vs. baseline: Do you fail to listen to people's names when you are meeting them for the first time?: 22% better
  CFQ % better vs. baseline: Do you fail to notice signposts on the road?: 30% better
  CFQ % better vs. baseline: Do you fail to see what you want in a supermarket (although it's there)?: 15% better
  CFQ % better vs. baseline: Do you find that you drop things?: 27% better
  CFQ % better vs. baseline: Do you find that you forget appointments?: 30% better
  CFQ % better vs. baseline: Do you find you accidentally misplace things like placing the fruit in the cupboard and the bowl in the refrigerator?: 13% better
  CFQ % better vs. baseline: Do you find you can't quite remember something although it's “on the tip of your tongue”?: 20%
  CFQ % better vs. baseline: Do you find you can't think of anything to say?: 27% better
  CFQ % better vs. baseline: Do you find you forget people's names?: 20% better
  CFQ % better vs. baseline: Do you find you forget what you came to the store to buy?: 33% better
  CFQ % better vs. baseline: Do you find you forget whether you've turned off a light or locked the door?: 45%
  CFQ % better vs. baseline: Do you find you forget which way to turn on a road you know well but rarely use?: 33% better
  CFQ % better vs. baseline: Do you find you forget why you went from one place of the house to the other?: 39%
